Common to all, as to format: in vitro ADME
In data set [1] the target is T1, CYP2C19 (Homo sapiens, UniProt P33261).
T1 construct: the incubation mixtures containing pooled HLMs (0.25 mg/mL, H2630, Xenotech); tissue Xenotech H2630; host or cells: pooled human liver microsomes
The data set is described as follows: CYP2C19 inhibition (omeprazole 5-hydroxylase) in human liver microsomes, substrate cocktail LC-MS/MS. As for the experimental part:
(§1) The inhibitory effects of two selaginellins on the metabolism of ten P450 probe substrates were evaluated using previously reported method with minor modification. Phenacetin O-deethylase, coumarin 7-hydroxylase, bupropion 4-hydroxylase, amodiaquine N-deethylase, tolbutamide 4-hydroxylase, omeprazole 5-hydroxylase, dextromethorphan O-demethylase, chlorzoxazone 6-hydroxylase and midazolam 1′-hydroxylase activities were determined as probe activities for CYP1A2, CYP2A6, CYP2B6, CYP2C8, CYP2C9, CYP2C19, CYP2D6, CYP2E1 and […], respectively, using substrate cocktail incubation and tandem mass spectrometry (Table 2). Selaginellins were dissolved in methanol. The final concentrations of organic solvent (methanol) for the cocktail incubation conditions in all experiments were 1.0% (v/v). In brief, the incubation mixtures containing pooled HLMs (0.25 mg/mL, H2630, Xenotech), P450 probe substrate cocktail, and inhibitor (0, 0.5, 2, 5, 20 and 50 μM) were preincubated at 37 °C for 5 min. […] After mixing and centrifugation, aliquots were analyzed by liquid chromatography-tandem mass spectrometry (LC-MS/MS) as previous described. The CYP2J2 inhibitory effects of two selaginellins were also evaluated in pooled HLMs using previously reported method. […]
(Microsomes from liver hold many membrane-bound enzymes, among them those of drug oxidation.)

Data set [2] concerns the target T2, CYP2D6 (Homo sapiens, UniProt P10635).
T2 construct: the incubation mixtures containing pooled HLMs (0.25 mg/mL, H2630, Xenotech); tissue Xenotech H2630; host or cells: pooled human liver microsomes
As to the kind of experiment: CYP2D6 inhibition (dextromethorphan O-demethylase) in human liver microsomes, substrate cocktail LC-MS/MS. As for the experimental part:
as §1

Data set [3] deals with CYP3A. As to the kind of experiment: CYP3A inhibition (midazolam 1'-hydroxylase) in human liver microsomes, substrate cocktail LC-MS/MS. As for the experimental part: as §1

The structures appear in SMILES notation. Read-outs that look alike come from different tables or passages of the source.

Drawing on paper PMC6151550, “Inhibitory Effect of Selaginellins from Selaginella tamariscina (Beauv.) Spring against Cytochrome P450 and Uridine 5′-Diphosphoglucuronosyltransferase Isoforms on Human Liver Microsomes” (Molecules : A Journal of Synthetic Chemistry and Natural …, 2017), this text covers IC50 for two compounds.

The term IC50 denotes the concentration that gives 50% inhibition.

T2 sequence (P10635 whole entry): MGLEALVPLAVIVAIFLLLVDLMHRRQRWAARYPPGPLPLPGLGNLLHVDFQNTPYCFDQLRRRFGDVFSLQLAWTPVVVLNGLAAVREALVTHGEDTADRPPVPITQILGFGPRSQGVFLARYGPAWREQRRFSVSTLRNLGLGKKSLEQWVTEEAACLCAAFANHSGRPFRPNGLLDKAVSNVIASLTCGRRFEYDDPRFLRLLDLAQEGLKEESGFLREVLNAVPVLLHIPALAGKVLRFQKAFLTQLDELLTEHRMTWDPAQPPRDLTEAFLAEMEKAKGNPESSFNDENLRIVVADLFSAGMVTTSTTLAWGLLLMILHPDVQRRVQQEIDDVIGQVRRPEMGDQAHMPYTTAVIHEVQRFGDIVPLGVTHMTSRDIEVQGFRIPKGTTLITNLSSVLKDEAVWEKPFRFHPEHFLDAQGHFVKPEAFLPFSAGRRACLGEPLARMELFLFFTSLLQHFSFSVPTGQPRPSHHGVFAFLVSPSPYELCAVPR
T1 sequence (P33261 whole entry): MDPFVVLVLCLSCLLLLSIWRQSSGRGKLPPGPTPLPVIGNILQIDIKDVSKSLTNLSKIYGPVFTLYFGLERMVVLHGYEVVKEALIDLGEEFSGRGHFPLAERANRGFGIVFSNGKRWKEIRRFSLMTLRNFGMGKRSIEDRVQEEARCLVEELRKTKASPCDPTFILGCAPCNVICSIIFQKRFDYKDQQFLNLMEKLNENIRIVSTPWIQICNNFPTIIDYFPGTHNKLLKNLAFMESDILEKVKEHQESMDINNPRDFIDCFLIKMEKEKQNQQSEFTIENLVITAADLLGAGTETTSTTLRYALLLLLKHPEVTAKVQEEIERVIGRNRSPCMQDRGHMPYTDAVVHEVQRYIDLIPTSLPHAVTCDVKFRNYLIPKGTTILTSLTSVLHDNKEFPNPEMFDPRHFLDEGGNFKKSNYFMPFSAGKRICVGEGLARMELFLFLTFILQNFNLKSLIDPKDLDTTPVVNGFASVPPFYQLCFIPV

Regarding `COc1ccc(C(=C2C=CC(=O)C=C2)c2c(-c3ccc(O)cc3)ccc(CO)c2C#Cc2ccc(O)cc2)cc1` [Selaginellin M], the IC50 came out at 16.1 µM in data set [1] and 6.8 µM in data set [2]. In data set [3], this compound yielded an IC50 at 15 min of more than 50 µM.
`O=C1C=CC(=C(c2ccc(O)cc2)c2c(-c3ccc(O)cc3)ccc(CO)c2C#Cc2ccc(O)cc2)C=C1` [Selaginellin]: the figures for the IC50 in data set [1] and in data set [2] were 10 µM and 5.8 µM, respectively. For the same compound, the IC50 at 15 min in data set [3] (pooled HLMs 0.25 mg/mL, midazolam 5.0 μM, read-out: IC50 P450 isoform 3A) was determined as 11.7 µM.
